Experimental data from patent EP2326328B1, “USE OF DIHYDRALAZINE FOR THE TREATMENT OF DISEASES RELATED TO ELEVATED SEMICARBAZIDE SENSITIVE AMINE-OXIDASE (SSAO) ACTIVITY” (Semmelweis Egyetem, priority 2008, dated 2010).
Where “and” joins values, the source holds several entries; their conditions need not be identical. Equal entries are not always repeated. Where two headings read alike, the source gives them in different places.

How the values were obtained:
macular edema = macular edema of type 2 diabetic patients, retinal thickness by optical coherency tomography (OCT); assay type: in vivo, human; design: OCT CPT (center point thickness): unit not given beside the values; conditions: for OCT CPT (center point thickness) / OCT CST (central subfield thickness): oral 14.5 mg dihydralazine sulphate twice daily
Protocol: The effect of orally administered low dose dihydralazine on macular edema and serum SSAO activity was studied in type 2 diabetic patients in an early stage of macular edema formation.
(§1) After giving their informed consent, patients participating in the study were treated for 56 days taking ½ tablet twice daily of a pharmaceutical composition containing 28.9 mg dihydralazine sulphate (i.e. the ½ tablet contained 14.5 mg dihydralazine sulphate).
(§2) To measure the efficacy and monitor the safety of the treatment, the following examinations were carried out before starting the treatment and at the 1., 7., 14., 28. and 56. day of the treatment: • 1. ocular examinations: visual acuity (ETDRS chart), slit-lamp examination, measurement of intraocular pressure with applanation tonometry, fundus biomicroscopy with pupil dilation, digital fundus photography. The grade of macular edema was determined via measuring retinal thickness with optical coherency tomography (OCT). • 2. internal medicine examinations: anamnesis, physical examinations, blood pressure, pulse, urine examination. • 3. laboratory examinations: blood glucose, HbA1c, liver function, kidney function, microalbuminuria, metabolic panel of the blood , lipids, CRP.
(§3) In the table the following abbreviations were used: • BMI: body mass index - weight (kg) / height (m^2) • RRsyst: blood pressure (systolic) (Hgmm) • RRdiast: blood pressure (diastolic) (Hgmm) • OCT CST (central subfield thickness): the average thickness of the central 1-mm area of the macula • OCT CPT (center point thickness): the thickness of the center point of the retina; normally that is the thinnest point of the macula Table 4.

[1] = blood pressure and pulse of treated type 2 diabetic patients; assay type: in vivo, human; conditions: oral 14.5 mg dihydralazine sulphate twice daily; for RRsyst: blood pressure (systolic): before treatment 153
Protocol: as §1, §2, §3

SSAO = target: T1, SSAO (Rattus norvegicus, UniProt O08590); assay: serum SSAO activity in vivo in rats after sc treatment; conditions: for Specific activity (pmol/mg/h) Mean / Inhibition (%) / Specific activity / inhibition at 10 µmol/kg / inhibition at 100 µmol/kg: rat serum SSAO; for Specific activity (pmol/mg/h) Mean / Specific activity: control mean 3.373; for inhibition at 10 µmol/kg / inhibition at 100 µmol/kg: rat, sc
T1 construct: from tissue; host or cells: rat serum (blood supernatant) of treated animals
T1 sequence (O08590 28-763 limits assumed): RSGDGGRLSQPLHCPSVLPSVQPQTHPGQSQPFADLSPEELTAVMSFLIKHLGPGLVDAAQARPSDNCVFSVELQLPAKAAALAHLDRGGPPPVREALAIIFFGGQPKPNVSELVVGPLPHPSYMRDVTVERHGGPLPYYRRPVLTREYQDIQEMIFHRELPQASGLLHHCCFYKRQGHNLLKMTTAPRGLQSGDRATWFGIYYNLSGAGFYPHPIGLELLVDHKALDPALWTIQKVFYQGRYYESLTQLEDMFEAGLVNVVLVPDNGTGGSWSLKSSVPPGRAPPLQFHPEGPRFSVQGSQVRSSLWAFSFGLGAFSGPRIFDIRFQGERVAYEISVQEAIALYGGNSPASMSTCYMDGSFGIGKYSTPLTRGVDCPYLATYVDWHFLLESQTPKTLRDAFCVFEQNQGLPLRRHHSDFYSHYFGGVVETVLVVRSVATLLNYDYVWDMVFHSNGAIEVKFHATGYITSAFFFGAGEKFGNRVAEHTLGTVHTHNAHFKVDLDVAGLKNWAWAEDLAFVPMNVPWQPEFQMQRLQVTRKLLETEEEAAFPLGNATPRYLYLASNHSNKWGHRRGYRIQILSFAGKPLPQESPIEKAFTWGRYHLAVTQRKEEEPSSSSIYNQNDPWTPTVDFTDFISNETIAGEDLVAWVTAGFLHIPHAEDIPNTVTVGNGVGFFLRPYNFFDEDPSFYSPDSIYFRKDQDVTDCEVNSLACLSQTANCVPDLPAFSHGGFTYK
Protocol: Rats were treated sc with 0.1 or 0.01 M dihydralazine solution (0.1 ml/100 g) once daily for 1-5 days. On the appropriate day, 2 hours after the treatment the rats were decapitated and their blood was collected without anticoagulant in plastic centrifuge tubes. Blood samples were centrifuged at a low frequency (800 rpm/min) and the supernatant was used for the determination of SSAO activity applying ^14C-benzylamine substrate.
SSAO inhibition expressed in pmol/mg protein/hour units and in % values (mean ± S.D.) in the two treated groups is shown in table 2 and 3.

[2] = sc 10 µmol/kg (1.9 mg/kg) once daily, 24 h, individual animals
[3] = sc 10 µmol/kg (1.9 mg/kg) once daily, 48 h, individual animals
[4] = sc 10 µmol/kg (1.9 mg/kg) once daily, 72 h, individual animals
[5] = sc 10 µmol/kg (1.9 mg/kg) once daily, 96 h, individual animals
[6] = sc 10 µmol/kg (1.9 mg/kg) once daily, 120 h, individual animals
[7] = sc 100 µmol/kg (19 mg/kg) once daily, 24 h, individual animals
[8] = sc 100 µmol/kg (19 mg/kg) once daily, 48 h, individual animals
[9] = sc 100 µmol/kg (19 mg/kg) once daily, 72 h, individual animals
[10] = sc 100 µmol/kg (19 mg/kg) once daily, 96 h, individual animals
[11] = sc 100 µmol/kg (19 mg/kg) once daily, 120 h, individual animals

NNc1nnc(NN)c2ccccc12 [dihydralazine]
OCT CPT (center point thickness) (macular edema; 1. patient, 14. day, before treatment 272): 215 | OCT CST (central subfield thickness) (macular edema; 1. patient, 14. day, before treatment 298): 266 | OCT CPT (center point thickness) (macular edema; 1. patient, 28. day, before treatment 272): 219 | OCT CST (central subfield thickness) (macular edema; 1. patient, 28. day, before treatment 298): 273 | OCT CPT (center point thickness) (macular edema; 1. patient, 56. day, before treatment 272): 209 | OCT CST (central subfield thickness) (macular edema; 1. patient, 56. day, before treatment 298): 265 | OCT CPT (center point thickness) (macular edema; 2. patient, 14. day, before treatment 257): 319 | OCT CST (central subfield thickness) (macular edema; 2. patient, 14. day, before treatment 302): 323 | OCT CPT (center point thickness) (macular edema; 2. patient, 28. day, before treatment 257): 239 | OCT CST (central subfield thickness) (macular edema; 2. patient, 28. day, before treatment 302): 286 | OCT CPT (center point thickness) (macular edema; 2. patient, 56. day, before treatment 257): 201 | OCT CST (central subfield thickness) (macular edema; 2. patient, 56. day, before treatment 302): 252 | macular edema (macular edema; 2 treated type 2 diabetic patients, oral 14.5 mg dihydralazine sulphate twice daily for 56 days): significant decrease of the macular edema was observed in the fovea | pulse ([1]; 1. patient, 14. day, before treatment 60): 69 beats/min | RRdiast: blood pressure (diastolic) ([1]; 1. patient, 14. day, before treatment 63): 70 Hgmm | RRsyst: blood pressure (systolic) ([1]; 1. patient, 14. day): 154 Hgmm | pulse ([1]; 1. patient, 28. day, before treatment 60): 69 beats/min | RRdiast: blood pressure (diastolic) ([1]; 1. patient, 28. day, before treatment 63): 68 Hgmm | RRsyst: blood pressure (systolic) ([1]; 1. patient, 28. day): 152 Hgmm | pulse ([1]; 1. patient, 56. day, before treatment 60): 60 beats/min | RRdiast: blood pressure (diastolic) ([1]; 1. patient, 56. day, before treatment 63): 67 Hgmm | RRsyst: blood pressure (systolic) ([1]; 1. patient, 56. day): 161 Hgmm | RRdiast: blood pressure (diastolic) ([1]; 2. patient, 14. day, before treatment 76): 65 Hgmm | pulse ([1]; 2. patient, 14. day, before treatment 79): 89 beats/min | RRsyst: blood pressure (systolic) ([1]; 2. patient, 14. day): 150 Hgmm | RRdiast: blood pressure (diastolic) ([1]; 2. patient, 28. day, before treatment 76): 74 Hgmm | pulse ([1]; 2. patient, 28. day, before treatment 79): 93 beats/min | RRsyst: blood pressure (systolic) ([1]; 2. patient, 28. day): 158 Hgmm | RRdiast: blood pressure (diastolic) ([1]; 2. patient, 56. day, before treatment 76): 64 Hgmm | pulse ([1]; 2. patient, 56. day, before treatment 79): 77 beats/min | RRsyst: blood pressure (systolic) ([1]; 2. patient, 56. day): 126 Hgmm | blood pressure ([1]; type 2 diabetic patients): did not cause significant change of blood pressure | SSAO inhibition (SSAO; animal experiments, low dose without appreciable blood pressure lowering effect): significant SSAO inhibition | Specific activity (pmol/mg/h) Mean (SSAO; sc 10 µmol/kg (1.9 mg/kg) once daily, 24 h, group mean): 1.580 pmol/mg/h | Inhibition (%) (SSAO; [2]): 37% and 57% | Specific activity (SSAO; [2]): 2.11 pmol/mg/h and 1.19 pmol/mg/h and 1.44 pmol/mg/h | Specific activity (pmol/mg/h) Mean (SSAO; sc 10 µmol/kg (1.9 mg/kg) once daily, 48 h, group mean): 1.595 pmol/mg/h | Inhibition (%) (SSAO; [3]): 52% and 55% | Specific activity (SSAO; [3]): 1.66 pmol/mg/h and 1.61 pmol/mg/h and 1.52 pmol/mg/h | Specific activity (pmol/mg/h) Mean (SSAO; sc 10 µmol/kg (1.9 mg/kg) once daily, 72 h, group mean): 1.244 pmol/mg/h | Inhibition (%) (SSAO; [4]): 69% | Specific activity (SSAO; [4]): 1.25 pmol/mg/h and 1.06 pmol/mg/h and 1.43 pmol/mg/h | Specific activity (pmol/mg/h) Mean (SSAO; sc 10 µmol/kg (1.9 mg/kg) once daily, 96 h, group mean): 1.344 pmol/mg/h | Inhibition (%) (SSAO; [5]): 71% and 42% | Specific activity (SSAO; [5]): 0.97 pmol/mg/h and 1.94 pmol/mg/h and 1.12 pmol/mg/h | Specific activity (pmol/mg/h) Mean (SSAO; sc 10 µmol/kg (1.9 mg/kg) once daily, 120 h, group mean): 1.425 pmol/mg/h | Inhibition (%) (SSAO; [6]): 77% and 14% and 82% | Specific activity (SSAO; [6]): 0.78 pmol/mg/h and 2.90 pmol/mg/h and 0.59 pmol/mg/h | Specific activity (pmol/mg/h) Mean (SSAO; sc 100 µmol/kg (19 mg/kg) once daily, 24 h, group mean): 1.094 pmol/mg/h | Inhibition (%) (SSAO; [7]): 69% | Specific activity (SSAO; [7]): 1.13 pmol/mg/h and 1.05 pmol/mg/h and 1.11 pmol/mg/h | Specific activity (pmol/mg/h) Mean (SSAO; sc 100 µmol/kg (19 mg/kg) once daily, 48 h, group mean): 1.481 pmol/mg/h | Inhibition (%) (SSAO; [8]): 47% and 61% | Specific activity (SSAO; [8]): 1.33 pmol/mg/h and 1.80 pmol/mg/h and 1.31 pmol/mg/h | Specific activity (pmol/mg/h) Mean (SSAO; sc 100 µmol/kg (19 mg/kg) once daily, 72 h, group mean): 1.177 pmol/mg/h | Inhibition (%) (SSAO; [9]): 66% | Specific activity (SSAO; [9]): 1.11 pmol/mg/h and 1.26 pmol/mg/h and 1.15 pmol/mg/h | Specific activity (pmol/mg/h) Mean (SSAO; sc 100 µmol/kg (19 mg/kg) once daily, 96 h, group mean): 0.859 pmol/mg/h | Inhibition (%) (SSAO; [10]): 73% | Specific activity (SSAO; [10]): 0.55 pmol/mg/h and 1.12 pmol/mg/h and 0.91 pmol/mg/h | Specific activity (pmol/mg/h) Mean (SSAO; sc 100 µmol/kg (19 mg/kg) once daily, 120 h, group mean): 0.730 pmol/mg/h | Inhibition (%) (SSAO; [11]): 62% and 90% and 83% | Specific activity (SSAO; [11]): 1.29 pmol/mg/h and 0.34 pmol/mg/h and 0.56 pmol/mg/h | inhibition at 10 µmol/kg (SSAO; sc 10 µmol/kg (1.9 mg/kg) once daily, 24 h, group mean, read-out: Inhibition (%) Mean): 53% | inhibition at 10 µmol/kg (SSAO; sc 10 µmol/kg (1.9 mg/kg) once daily, 48 h, group mean, read-out: Inhibition (%) Mean): 53% | inhibition at 10 µmol/kg (SSAO; sc 10 µmol/kg (1.9 mg/kg) once daily, 48 h, individual animals, read-out: Inhibition (%)): 51% | inhibition at 10 µmol/kg (SSAO; sc 10 µmol/kg (1.9 mg/kg) once daily, 72 h, group mean, read-out: Inhibition (%) Mean): 63% | inhibition at 10 µmol/kg (SSAO; sc 10 µmol/kg (1.9 mg/kg) once daily, 72 h, individual animals, read-out: Inhibition (%)): 63% | inhibition at 10 µmol/kg (SSAO; sc 10 µmol/kg (1.9 mg/kg) once daily, 96 h, group mean, read-out: Inhibition (%) Mean): 60% | inhibition at 10 µmol/kg (SSAO; sc 10 µmol/kg (1.9 mg/kg) once daily, 120 h, group mean, read-out: Inhibition (%) Mean): 58% | inhibition at 100 µmol/kg (SSAO; sc 100 µmol/kg (19 mg/kg) once daily, 24 h, group mean, read-out: Inhibition (%) Mean): 68% | inhibition at 100 µmol/kg (SSAO; sc 100 µmol/kg (19 mg/kg) once daily, 24 h, individual animals, read-out: Inhibition (%)): 67% | inhibition at 100 µmol/kg (SSAO; sc 100 µmol/kg (19 mg/kg) once daily, 48 h, group mean, read-out: Inhibition (%) Mean): 56% | inhibition at 100 µmol/kg (SSAO; sc 100 µmol/kg (19 mg/kg) once daily, 48 h, individual animals, read-out: Inhibition (%)): 60% | inhibition at 100 µmol/kg (SSAO; sc 100 µmol/kg (19 mg/kg) once daily, 72 h, group mean, read-out: Inhibition (%) Mean): 65% | inhibition at 100 µmol/kg (SSAO; sc 100 µmol/kg (19 mg/kg) once daily, 72 h, individual animals, read-out: Inhibition (%)): 67% | inhibition at 100 µmol/kg (SSAO; sc 100 µmol/kg (19 mg/kg) once daily, 96 h, group mean, read-out: Inhibition (%) Mean): 75% | inhibition at 100 µmol/kg (SSAO; sc 100 µmol/kg (19 mg/kg) once daily, 96 h, individual animals, read-out: Inhibition (%)): 84% | inhibition at 100 µmol/kg (SSAO; sc 100 µmol/kg (19 mg/kg) once daily, 120 h, group mean, read-out: Inhibition (%) Mean): 78%
